Measured values from ChEMBL document CHEMBL1158667, “Agelasines H and I, 9-methyladenine-containing diterpenoids from an Agelas sponge” (J Nat Prod, 1998).
Calls of active or inactive are those of the source. No cut-off for these calls is given here.

Legend:
Type in all cases: functional, organism-based
Pseudomonas aeruginosa [1] = assay: Antimicrobial activity against Pseudomonas aeruginosa ATCC 15442 at 200 ug/mL
Staphylococcus aureus [2] = assay: Antimicrobial activity against Staphylococcus aureus ATCC 6538 at 200 ug/mL
Saccharomyces cerevisiae [3] = assay: Antimicrobial activity against Saccharomyces cerevisiae ATCC 18824 at 200 ug/mL
Aspergillus niger [4] = assay: Antimicrobial activity against Aspergillus niger ATCC 9642 at 200 ug/mL
Saccharomyces cerevisiae [5] = assay: Antimicrobial activity against Saccharomyces cerevisiae ATCC 18824 at 10 ug/mL
Pseudomonas aeruginosa [6] = assay: Antimicrobial activity against Pseudomonas aeruginosa ATCC 15442 at 1 ug/mL
Staphylococcus aureus [7] = assay: Antimicrobial activity against Staphylococcus aureus ATCC 6538 at 100 ug/mL
Saccharomyces cerevisiae [8] = assay: Antimicrobial activity against Saccharomyces cerevisiae ATCC 18824 at 100 ug/mL
Aspergillus niger [9] = assay: Antimicrobial activity against Aspergillus niger ATCC 9642 at 100 ug/mL
Aspergillus niger [10] = assay: Antimicrobial activity against Aspergillus niger ATCC 9642 at 1 ug/mL
Pseudomonas aeruginosa [11] = assay: Antimicrobial activity against Pseudomonas aeruginosa ATCC 15442 at 10 ug/mL
Aspergillus niger [12] = assay: Antimicrobial activity against Aspergillus niger ATCC 9642 at 10 ug/mL
Saccharomyces cerevisiae [13] = assay: Antimicrobial activity against Saccharomyces cerevisiae ATCC 18824 at 1 ug/mL
Staphylococcus aureus [14] = assay: Antimicrobial activity against Staphylococcus aureus ATCC 6538 at 10 ug/mL
Pseudomonas aeruginosa [15] = assay: Antimicrobial activity against Pseudomonas aeruginosa ATCC 15442 at 100 ug/mL
Staphylococcus aureus [16] = assay: Antimicrobial activity against Staphylococcus aureus ATCC 6538 at 1 ug/mL

Q: With `CC1=CCC[C@@H]2[C@@](C)(CC/C(C)=C/Cn3c[n+](C)c4ncnc(N)c43)[C@H](C)CC[C@@]12C` as the compound, how does the Activity (Pseudomonas aeruginosa [1]) read?
A: inactive

Q: And the Activity (Staphylococcus aureus [2])?
A: inactive

Q: What about the Activity (Saccharomyces cerevisiae [3]) of the same compound?
A: inactive

Q: And the Activity (Aspergillus niger [4])?
A: inactive

Q: What about the Activity (Saccharomyces cerevisiae [5]) of the same compound?
A: Active

Q: With `C/C(=C\Cn1c[n+](C)c2ncnc(N)c21)CC[C@]1(C)[C@@H](C)CC[C@@]2(C)C(CO)=CCC[C@@H]12` as the compound, how does the Activity (Pseudomonas aeruginosa [6]) read?
A: inactive

Q: What about the Activity (Staphylococcus aureus [7]) of the same compound?
A: inactive

Q: And the Activity (Saccharomyces cerevisiae [8])?
A: inactive

Q: What about the Activity (Aspergillus niger [9]) of the same compound?
A: inactive

Q: And the Activity (Pseudomonas aeruginosa [1])?
A: inactive

Q: And the Activity (Staphylococcus aureus [2])?
A: inactive

Q: And the Activity (Aspergillus niger [10])?
A: inactive

Q: What about the Activity (Saccharomyces cerevisiae [3]) of the same compound?
A: inactive

Q: What about the Activity (Pseudomonas aeruginosa [11]) of the same compound?
A: inactive

Q: What about the Activity (Aspergillus niger [12]) of the same compound?
A: inactive

Q: What about the Activity (Saccharomyces cerevisiae [13]) of the same compound?
A: inactive

Q: And the Activity (Staphylococcus aureus [14])?
A: inactive

Q: What about the Activity (Pseudomonas aeruginosa [15]) of the same compound?
A: inactive

Q: What about the Activity (Aspergillus niger [4]) of the same compound?
A: inactive

Q: And the Activity (Staphylococcus aureus [16])?
A: inactive

Q: And the Activity (Saccharomyces cerevisiae [5])?
A: inactive

Q: `C=C1[C@H](O)CC[C@H]2[C@](C)(CC/C(C)=C/Cn3c[n+](C)c4ncnc(N)c43)[C@@H](C)CC[C@@]12C` was tested. Which Activity (Saccharomyces cerevisiae [3]) did it give?
A: Active

Q: With `C/C(=C\Cn1c[n+](C)c2ncnc(N)c21)CC[C@]1(C)[C@@H](C)CC[C@@]2(C)C(COC(=O)c3ccc[nH]3)=CCC[C@@H]12` as the compound, how does the Activity (Pseudomonas aeruginosa [1]) read?
A: inactive

Q: And the Activity (Staphylococcus aureus [2])?
A: inactive

Q: And the Activity (Saccharomyces cerevisiae [3])?
A: inactive

Q: And the Activity (Aspergillus niger [4])?
A: inactive

Q: And the Activity (Saccharomyces cerevisiae [5])?
A: Active

Q: Which Activity (Pseudomonas aeruginosa [6]) does the source give for `CC1=CCC[C@H]2[C@](C)(CC/C(C)=C/Cn3c[n+](C)c4ncnc(N)c43)[C@@H](C)CC[C@@]12C` here?
A: inactive

Q: And the Activity (Staphylococcus aureus [7])?
A: inactive

Q: And the Activity (Saccharomyces cerevisiae [8])?
A: inactive

Q: What about the Activity (Aspergillus niger [9]) of the same compound?
A: inactive

Q: What about the Activity (Pseudomonas aeruginosa [1]) of the same compound?
A: inactive

Q: And the Activity (Staphylococcus aureus [2])?
A: inactive

Q: What about the Activity (Aspergillus niger [10]) of the same compound?
A: inactive

Q: What about the Activity (Saccharomyces cerevisiae [3]) of the same compound?
A: inactive

Q: And the Activity (Pseudomonas aeruginosa [11])?
A: inactive

Q: What about the Activity (Aspergillus niger [12]) of the same compound?
A: inactive

Q: And the Activity (Saccharomyces cerevisiae [13])?
A: inactive

Q: What about the Activity (Staphylococcus aureus [14]) of the same compound?
A: inactive

Q: What about the Activity (Pseudomonas aeruginosa [15]) of the same compound?
A: inactive

Q: And the Activity (Aspergillus niger [4])?
A: inactive

Q: And the Activity (Staphylococcus aureus [16])?
A: inactive

Q: And the Activity (Saccharomyces cerevisiae [5])?
A: inactive

Q: What does the source list for `CC1=CCC[C@H](C)[C@@]1(C)CC/C(C)=C/CC/C(C)=C/Cn1c[n+](C)c2ncnc(N)c21`?
A: Activity (Aspergillus niger [9]): Active; Activity (Saccharomyces cerevisiae [5]): Active
